Patent US7932262B2 (Novartis AG, priority 2006, dated 2011)

Experiments:
[1] = system: pAkt308 (phosphorylation of Akt at T308) in PC-3 cells; assay: pAkt T308 ECL Assay in PC-3 cells; format: cell-based; details: Homo sapiens, 6 h, six hours with compound, read-out: PAKT308 PC3 IC50
Experimental: VI. The pAkt^T308 ECL Assay Protocol
On Day 1, PC-3 cells were seeded at 15,000 cells/well in 100 μL/well ([…]) growth media into black-walled, clear bottom, poly-L-lysine coated plates. The cells were incubated overnight in a 37° C., 5% CO2 incubator.
On Day 2, a MSD ECL plate was blocked for two hours with 150 μL per well of 3% MSD blocker A.
Test compounds were diluted to 500× in DMSO and then were subjected to further serial dilution using a BioMek 2000 instrument. DMSO diluted compounds were then diluted into growth media and then added to the cell plates.
The cell plates incubated with compounds for six hours in a 37° C., 5% CO2 incubator after which the growth medium was removed and 55 μl of MSD lysis buffer was added to cell plates on ice. The plates were lysed on ice for five minutes followed by 15 minutes of vigorous shaking on a plate shaker at 4° C. The blocked MSD assay plates were washed twice with 1×MSD wash buffer followed by the addition of cell lysate as follows: 30 μl of cell lysate was added to the pAkt308 plates and 13 μl of lysate+12 μl lysis buffer was added to the tAkt plates. The plates were then sealed and shaken at 4° C. overnight.
On Day 3, the MSD plates were washed four times with 1×MSD wash buffer then, 25 μl/well of MSD SULFO-TAG antibodies diluted to 10 nM final concentration in 1% blocker. A buffer was added to the antibody diluent which was added to assay plates. The plates were then sealed and incubated at RT for 1.5 hour. The plates were then washed twice with 1×MSD wash buffer followed by the addition of 150 μl/well of 1.5×MSD read buffer. The plates were read immediately after the addition of read buffer using a Trilux instrument. […]

[2] = biological target: T1, PDK1 kinase (Homo sapiens, UniProt O15530); assay: PDK1 Kinase Alpha Screen Assay; format: biochemical; details: read-out: PDK1 IC50
T1 sequence (O15530 1-556): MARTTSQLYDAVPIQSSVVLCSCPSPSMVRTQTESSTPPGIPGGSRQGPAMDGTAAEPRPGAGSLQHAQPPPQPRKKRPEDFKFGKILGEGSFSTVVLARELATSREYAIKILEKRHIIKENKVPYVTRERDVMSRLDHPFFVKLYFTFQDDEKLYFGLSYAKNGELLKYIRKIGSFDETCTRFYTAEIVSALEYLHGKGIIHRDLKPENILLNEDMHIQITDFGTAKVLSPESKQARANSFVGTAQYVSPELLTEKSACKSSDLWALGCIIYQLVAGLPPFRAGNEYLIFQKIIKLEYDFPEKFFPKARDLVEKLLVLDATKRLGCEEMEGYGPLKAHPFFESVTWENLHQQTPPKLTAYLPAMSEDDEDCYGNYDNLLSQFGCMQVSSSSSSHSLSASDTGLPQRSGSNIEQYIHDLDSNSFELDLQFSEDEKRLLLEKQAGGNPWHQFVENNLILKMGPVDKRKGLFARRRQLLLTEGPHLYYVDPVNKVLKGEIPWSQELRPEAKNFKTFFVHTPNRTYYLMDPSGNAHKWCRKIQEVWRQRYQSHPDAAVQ
Method in brief: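 PDK1 phosphorylated 50 nM biotinylated PDK1-4 peptide with 10 uM ATP in Tris pH 7.5, 10 mM MgCl2, 2 mM DTT, 2.5% DMSO for 3-18 hours. After EDTA stop, phosphopeptide was detected by AlphaScreen using phospho-(Ser/Thr) PKA substrate antibody with protein A/streptavidin beads, read after overnight incubation.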

[3] = system: PC-3 cells; assay: Cell Proliferation Assay (Cell Titer Glo), PC-3 cell line; format: cell-based; details: Homo sapiens, PC-3, 72 h, PC-3 cells, 3 days incubation; read-out: CP EC50 PC3
Method in brief: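 PC-3 cells, 1000 cells/well, left to adhere 3-5 h, then exposed for 3 days at 37° C to compounds as 1:3 serial dilutions from 500× DMSO stocks diluted in growth medium. Medium then replaced with fresh medium and viability read by Cell Titer Glo luminescence.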

[4] = system: A2780 cells; assay: Cell Proliferation Assay (Cell Titer Glo), A2780; format: cell-based; details: Homo sapiens, 72 h; A2780 cells, 3 days incubation; read-out: CPEC50 A2780
Method in brief: (§1)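 Cells seeded at 1000/well, allowed to adhere 3-5 h, then exposed to DMSO-dissolved compounds for 3 days at 37° C., 5% CO2. Medium replaced before Cell Titer Glo addition; luminescence read after 10 min.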

[5] = system: PC3MM cells; assay: Cell Proliferation Assay (Cell Titer Glo), PC3MM; format: cell-based; details: 72 h; PC3MM cells, 3 days incubation; read-out: CP EC50 PC3MM
Method in brief: as §1

NS(=O)(=O)c1ccc(Nc2ncc3cccc(O[C@@H]4CN5CCC4CC5)c3n2)cc1 [Compound 40, 4-[8-((S)-3-quinuclidinyloxy)-quinazolin-2-ylamino]-benzenesulfonamide]
< 5 µM: IC50 [1] | IC50 [2] | EC50 [3] | EC50 [4]

CN1C2CCC1CC(Oc1cccc3cnc(Nc4ccc(S(N)(=O)=O)cc4)nc13)C2 (stereo not shown) [Compound 41, 4-[8-(8-Methyl-8-aza-bicyclo[3.2.1]oct-3-yloxy)-quinazolin-2-ylamino]-benzenesulfonamide]
< 5 µM: IC50 [1] | IC50 [2] | EC50 [3] | EC50 [4]

CC(C)N1CCC(Oc2ccc3cnc(Nc4ccc(S(N)(=O)=O)cc4)nc3c2)CC1 [Compound 42, 4-[7-(l-Isopropyl-piperidin-4-yloxy)-quinazolin-2-ylamino]-benzenesulfonamide]
< 5 µM: IC50 [1] | IC50 [2] | EC50 [3] | EC50 [4]

CC(C)NC(=O)c1ccc(Nc2ncc3cccc(OC4CCN(C(C)C)CC4)c3n2)cc1 [Compound 44, N-Isopropyl-4-[8-(1-isopropyl-piperidin-4-yloxy)-quinazolin-2-ylamino]-benzamide]
< 5 µM: IC50 [1] | IC50 [2] | EC50 [3] | EC50 [4]

CC(C)CN1CCC(Oc2cccc3cnc(Nc4ccc(S(N)(=O)=O)cc4)nc23)CC1 [Compound 45, 4-[8-(1-Isobutyl-piperidin-4-yloxy)-quinazolin-2-ylamino]-benzenesulfonamide]
< 5 µM: IC50 [1] | IC50 [2] | EC50 [3] | EC50 [4]

NS(=O)(=O)c1ccc(Nc2ncc3ccc(OC4CCNCC4)cc3n2)cc1 [Compound 51, 4-[7-(Piperidin-4-yloxy)-quinazolin-2-ylamino]-benzenesulfonamide]
< 5 µM: IC50 [1] | IC50 [2] | EC50 [3] | EC50 [4]

CN1CCC(Oc2ccc3cnc(Nc4ccc(S(N)(=O)=O)cc4)nc3c2)CC1 [Compound 52, 4-[7-(1-Methyl-piperidin 4-yloxy)-quinazolin-2-ylamino]-benzenesulfonamide]
< 5 µM: EC50 [5] | IC50 [1] | IC50 [2] | EC50 [3] | EC50 [4]

CN1CCC(Oc2ccc3cnc(Nc4ccc(S(=O)(=O)N5CCOCC5)cc4)nc3c2)CC1 [Compound 53, [7-(1-Methyl-piperidin-4-yloxy)-quinazolin-2-yl]-[4-(morpholine-4-sulfonyl)-phenyl]-amine]
< 5 µM: IC50 [1] | IC50 [2] | EC50 [3] | EC50 [4]

NS(=O)(=O)c1ccc(Nc2ncc3ccc(-c4ccccc4)c(OC4CCNCC4)c3n2)cc1 [Compound 67, 4-[7-Phenyl-8-(piperidin-4-yloxy)-quinazolin-2-ylamino]-benzenesulfonamide]
< 5 µM: IC50 [1] | IC50 [2] | EC50 [3] | EC50 [4]

CC(C)N1CCC(c2c(O)ccc3cnc(Nc4ccc(S(N)(=O)=O)cc4)nc23)CC1 [Compound 134, 4-[7-Hydroxy-8-(1-isopropyl-piperidin-4-yl)-quinazolin-2-ylamino]-benzenesulfonamide]
< 5 µM: IC50 [1] | IC50 [2] | EC50 [3] | EC50 [4]

Cn1cc(-c2ccc3cnc(Nc4ccc(S(N)(=O)=O)cc4)nc3c2)cn1 [Compound 136, 4-[7-(1-Methyl-1H-pyrazol-4-yl)-quinazolin-2-ylamino]-benzenesulfonamide]
< 5 µM: IC50 [1] | IC50 [2] | EC50 [3] | EC50 [4]

NS(=O)(=O)c1ccc(Nc2ncc3ccc(-c4cccnc4F)cc3n2)cc1 [Compound 137, 4-[7-(2-Fluoro-pyridin-3-yl)-quinazolin-2-ylamino]-benzenesulfonamide]
< 5 µM: IC50 [1] | IC50 [2] | EC50 [3] | EC50 [4]
